{"source": "paper PMC12154458", "about": "“High-Throughput Screens of Repurposing Hub and DOS Chemical Libraries Reveal Compounds with Novel and Potent Inhibitory Activity Against the Essential Non-Neuronal Acetylcholinesterase of Schistosoma mansoni (SmTAChE)” (International Journal of Molecular Sciences, 2025);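 as to Inhibition (%) (Average): mostly 20 µM final but a few compounds at 5 or 10 µM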;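 as to Inhibition (%) Replicate A: mostly 20 µM final but a few compounds at 5 or 10 µM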;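 as to Inhibition (%) Replicate B: mostly 20 µM final but a few compounds at 5 or 10 µM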", "key": {"rSmTAChE [1]": {"biological_target": "T1, rSmTAChE (Schistosoma mansoni, UniProt A0A3Q0KMM5)", "T1 sequence (A0A3Q0KMM5 27-661 limits assumed)": "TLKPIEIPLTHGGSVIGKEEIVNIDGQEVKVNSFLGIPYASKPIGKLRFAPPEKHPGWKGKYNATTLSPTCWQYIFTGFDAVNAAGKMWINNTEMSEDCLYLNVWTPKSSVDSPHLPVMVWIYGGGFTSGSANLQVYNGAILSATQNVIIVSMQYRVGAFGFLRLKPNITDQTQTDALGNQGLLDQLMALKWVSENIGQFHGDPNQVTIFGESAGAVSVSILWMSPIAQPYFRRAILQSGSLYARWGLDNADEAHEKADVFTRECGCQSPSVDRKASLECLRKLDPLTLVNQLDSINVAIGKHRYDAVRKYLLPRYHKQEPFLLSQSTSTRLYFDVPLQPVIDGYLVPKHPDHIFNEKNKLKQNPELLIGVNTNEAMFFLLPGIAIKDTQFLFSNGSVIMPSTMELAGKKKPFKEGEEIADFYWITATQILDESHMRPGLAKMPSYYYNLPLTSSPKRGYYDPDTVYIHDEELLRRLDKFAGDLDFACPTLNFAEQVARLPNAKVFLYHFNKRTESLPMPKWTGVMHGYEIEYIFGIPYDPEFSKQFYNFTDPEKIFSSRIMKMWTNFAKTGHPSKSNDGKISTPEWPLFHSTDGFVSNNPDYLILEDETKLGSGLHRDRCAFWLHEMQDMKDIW", "assay": "biochemical"}, "rSmTAChE [2]": {"biological_target": "T1, rSmTAChE", "assay_type": "biochemical"}, "[3]": {"biological_target": "recombinant human acetylcholinesterase, rHsAChE (Homo sapiens, UniProt P22303)", "sequence (P22303 32-614)": "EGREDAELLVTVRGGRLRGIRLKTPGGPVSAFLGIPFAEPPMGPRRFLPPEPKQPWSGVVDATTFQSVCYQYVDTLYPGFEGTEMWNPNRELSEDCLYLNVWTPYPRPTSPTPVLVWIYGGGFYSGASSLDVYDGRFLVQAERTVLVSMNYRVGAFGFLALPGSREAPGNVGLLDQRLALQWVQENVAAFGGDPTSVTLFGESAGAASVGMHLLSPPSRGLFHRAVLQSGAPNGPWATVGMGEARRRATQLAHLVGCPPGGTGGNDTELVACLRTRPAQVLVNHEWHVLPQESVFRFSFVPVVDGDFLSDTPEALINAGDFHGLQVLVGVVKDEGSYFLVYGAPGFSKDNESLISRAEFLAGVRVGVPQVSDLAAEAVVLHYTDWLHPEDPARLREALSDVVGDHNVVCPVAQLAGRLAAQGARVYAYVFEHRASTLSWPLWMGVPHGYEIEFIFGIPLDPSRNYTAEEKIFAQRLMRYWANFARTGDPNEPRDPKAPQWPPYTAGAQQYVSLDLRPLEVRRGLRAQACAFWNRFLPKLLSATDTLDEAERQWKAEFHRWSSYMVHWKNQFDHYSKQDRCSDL", "assay": "biochemical"}, "[4]": {"test_system": "newly transformed S. mansoni schistosomula", "conditions": "survival over 3 days; read-out: IC50 against schistosomula; cited from earlier work"}, "[5]": {"test_system": "S. mansoni adult male and female worms", "conditions": "survival over 3 days; read-out: IC50 against adults; cited from earlier work"}, "S. mansoni worms in vivo": {"test_system": "S. mansoni worms in vivo", "conditions": "one time 200 mg/kg by oral gavage, four mice, 16–18 days post-drug administration; cited from earlier work"}, "[6]": {"test_system": "human red blood cell AChE", "conditions": "cited from earlier work"}}, "data": [{"smiles": "Nc1nc(NCC2CCC(CNS(=O)(=O)c3cccc4ccccc34)CC2)nc2ccccc12", "note": "(stereo not shown) [CGP-71683, reference compound]", "values": [{"measurement": "Inhibition (%) (Average)", "setting": "rSmTAChE [1]", "result": 61.37, "unit": "%"}, {"measurement": "Inhibition (%) Replicate A", "setting": "rSmTAChE [1]", "result": 61.71, "unit": "%"}, {"measurement": "Inhibition (%) Replicate B", "setting": "rSmTAChE [1]", "result": 61.03, "unit": "%"}, {"measurement": "HTS/rSmTAChE Inhibition (Ave, %)", "setting": "rSmTAChE [1]; 5 µM", "result": 61.37, "unit": "%"}, {"measurement": "Data Mode (curve class), rSmTAChE", "setting": "rSmTAChE [2]", "result": "decreasing"}, {"measurement": "SI (Hs/Sm)", "setting": "rSmTAChE [2]", "result": 8.82}, {"measurement": "fold greater potency/selectivity for SmTAChE vs. HsAChE (Selectivity Index)", "setting": "rSmTAChE [2]", "result": "about 10 fold"}, {"measurement": "IC50", "setting": "rSmTAChE [2]; read-out: IC50 (µM) rSmTAChE", "result": 2.21, "unit": "µM"}, {"measurement": "Data Mode (curve class), rHsAChE", "setting": "[3]", "result": "decreasing (weakly active)"}, {"measurement": "IC50", "setting": "[3]; read-out: IC50 (µM) rHsAChE", "result": "> 19.5", "unit": "µM"}, {"measurement": "IC50", "setting": "[4]", "result": "~1000", "unit": "nM"}, {"measurement": "IC50", "setting": "[5]", "result": "~2000", "unit": "nM"}, {"measurement": "worm burden compared to the controls", "setting": "S. mansoni worms in vivo", "result": "no differences in worm burden"}]}, {"smiles": "COc1cc(NC(C)CCCN)c2ncccc2c1", "note": "(stereo not shown) [Primaquine phosphate, reference compound]", "values": [{"measurement": "inhibition at 20 µM", "setting": "rSmTAChE [1]; read-out: HTS/rSmTAChE Inhibition (Ave, %)", "result": 73.7, "unit": "%"}, {"measurement": "Data Mode (curve class), rSmTAChE", "setting": "rSmTAChE [2]", "result": "decreasing"}, {"measurement": "SI (Hs/Sm)", "setting": "rSmTAChE [2]", "result": 2.21}, {"measurement": "Data Mode (curve class), rHsAChE", "setting": "[3]", "result": "decreasing (weakly active)"}, {"measurement": "IC33 human red blood cell AChE", "setting": "[6]", "result": 38, "unit": "µM"}, {"measurement": "IC67 human red blood cell AChE", "setting": "[6]", "result": 247, "unit": "µM"}]}]}
